Data: US8349793B2, “Method for treatment of inflammatory disease and disorder” (Heal0r, Ltd., priority 2010, dated 2013)
Values joined by “and” are separate entries in the source; they are usually repeats but may differ in a detail not shown here. Equal entries are not always repeated. Where no end group is shown, it is not given here. The star is where a group is joined. Myristoyl = CCCCCCCCCCCCCC(=O)*

Experiments:
[1] = tested on: keratinocytes; assay: Cytokine secretion in keratinocytes stimulated by LPS, TNFα or IL-17 (ELISA); assay type: cell-based, BALB/C mice
Description: To determine their effects, keratinocytes were derived from newborn BALB/C mice skin. The cells were incubated for 5 days in 24 wells plate. Cells were then incubated with PBS−/− as control or stimulated by LPS, TNFα, or IL-17. PKCα inhibitors were added as indicated. Medium containing secreted cytokines was collected after 48 hr and analyzed using ELISA. FIG. 40 is a tabular summary of cytokine secretion.
PKCδactivators were also shown to have an anti-inflammatory effect on keratinocytes and splenocytes. Keratinocytes were derived from newborn BALB/C mice skin. The cells were incubated for 5 days in 24 wells plate. Cells were then incubated with PBS−/− as control or stimulated by LPS or TNFα. The PKCδ inhibitor DAP-1 (SEQ ID NO: 16) was added. Medium containing secreted cytokines was collected after 48 hr and analyzed using ELISA. FIG. 35 is a tabular summary showing cytokine secretion in splenocytes stimulated with LPS. […] Cytokine secretion in keratinocytes stimulated by TNFα: following stimulation with 35 ng/ml TNFα. And treatment with 10 μg/ml of DAP-1, the cytokine levels of IL-1α, G-CSF, MIP-2 and KC were reduced by 95%, 70%, 20% and 30# respectively.
PKCε inhibitors were also shown to have an anti-inflammatory effect on keratinocytes. Keratinocytes were derived from newborn BALB/C mice skin. The cells were incubated for 5 days in 24 wells plate. Cells were then incubated with PBS−/− as control or stimulated by LPS or TNFα. The PKCεinhibitors EPIP-1 (SEQ ID NO: 20), EPIP-2 (SEQ ID NO: 21), or EPIP-4 (SEQ ID NO: 23) were added. Medium containing secreted cytokines was collected after 48 hr and analyzed using ELISA. FIGS. 36-39 show the results for secretion of specific cytokines while Table 8 summarizes cytokine secretion for the various PKCε inhibitors: […]

[2] = tested on: IKK; assay: TNFα induced IKK activation in keratinocytes (Western Blot, phospho-IKKa/b); assay type: cell-based, Murine; details: TNFα 35 ng/ml for 15 minutes
Description: Murine primary keratinocytes were grown for 4 days to full confluence in Low Ca^+2 MEM. Cells were pretreated with designated concentration of MPDY-1 as described in the figure for 1 hour, prior to TNFα induction. Following MPDY-1 pretreatment, cells were incubated with TNFα 35 ng/ml for 15 minutes. Reaction was stopped by adding ice-cold dPBS−/− and keratinocytes were homogenized in RIPA buffer. Samples were subjected to SDS PAGE Western Blot analysis, utilizing phospho-IKKa/b (Ser176/180 antibody).

[3] = tested on: C57BL/6J mouse; assay: Wound model of skin inflammation, immunohistochemical staining (ICAM-1, Iba-1, MAC-2, CD3, neutrophils); assay type: in vivo; details: treated daily
Description: A methodology was developed to detect and quantitatively assess inflammation in skin lesions in a wound setting which allows one to follow cutaneous inflammatory response in the different skin compartments and identify agents that affect this response (as a preliminary screening). Inflammatory response was considered severe when two of the following three conditions were evident: (1) abscess formation; (2) excessive leukocytosis (>100 cells in a fixed field×200); (3) high WB C/RBC ratio in blood vessels, where >20% of WBC content within the blood vessels is shown in a fixed field×200. Mechanistic characterization of the immunological response is studied utilizing markers to identify infiltration and activation of specific immunological cells. Examples for such markers are: ICAM-1 (as a marker activated basal keratinocytes and endothelial cells), MAC-2 (as a marker for activated macrophages) and CD3 (T cell marker).
(§1) A two-cm longitudinal incision was done on the upper back of a C57BL/6J mouse. Following wounding, a sterile pad was sutured to the mouse's skin. Animals were treated daily with HO/02/10 (n=12). Five days post-wounding, when inflammatory phase reaches its peak, the mice were sacrificed, skin tissues were embedded in paraffin and immunohistochemical staining was performed utilizing anti-ICAM-1 antibodies.
as §1, with “As above, a two-cm” for “A two-cm”, “with MPDY-1 (n=6).” for “with HO/02/10 (n=12).”
The effect of MPDY-1 on macrophage infiltration was also shown by Iba-1 staining. Iba-1 is a general marker for macrophages. […] As above, a two-cm longitudinal incision was done on the upper back of a C57BL/6J mouse. Following wounding, a sterile pad was sutured to the mouse's skin. Animals were treated daily with MPDY-1 (n=6). […]

[4] = tested on: healthy volunteers; assay: Histamine prick test model of pruritus; assay type: in vivo, human (healthy volunteers); details: for Pruritus score after minutes of histamine, 5 minutes / Pruritus score after minutes of histamine, 15 minutes: topical on forearm
Description: Forearms of individual subjects were injected with histamine solution and placebo. The formulation of Example 4 was topically applied with MPDY-1 at various concentrations and pruritus was assessed over a time course as shown, for example in FIG. 34.
This test was performed by placing a drop of a solution containing a possible allergen on the skin, and a series of scratches or needle pricks allow the solution to enter the skin. The extract enters into the outer layer of the skin (epidermis) using a fine needle (such as a. 26G disposable needle). This testing is not painful, and generally there is no bleeding involved since the needle only scratches the surface of the skin. If the skin develops a red, raised itchy area (called a wheal), it is as a result of allergic reaction to that allergen. This is called a positive reaction. A drop of extract is introduced through a fine needle (such as a No. 26 disposable needle). The test causes no discomfort and minimal trauma so that controls and negative test show only the site of the prick; if anything.
26G needles were utilized to introduce histamine stock (Histatrol Positive Control Histamine, 1 mg/ml, code #HIST14999V, Trupharm). The test was conducted on healthy volunteers in a double-blind, randomized test. The formulations were applied on the forearms. Three treatment areas were chosen and marked (the surface of the forearm from the elbow to the wrist was divided transversely into proximal, middle and distal thirds); the areas were pricked prior the below treatments.
An area was treated with the active formulation in a double-blind manner, for 10 minutes—marked as A.
An area was treated with the Placebo in a double-blind manner, for 10 minutes—marked as C.
A color photograph was taken at time zero (T0), after 10, 20, 30 minutes.
Pruritus questionnaire was answered by the subjects 5 and 15 minutes after treatment.
In one study, three subjects were treated, in the left or right arm, with MDPY-1 in gel or cream formulations, or with control formulations, as shown in Table 9.
Subjects were provided with pruritus sensation forms and asked to indicate the level of pruritus sensed from 0 (no response) to 4 (uncontrollable pruritus) at different time intervals.

[5] = 10 ppm in gel, score 0 (no response) to 4 (uncontrollable pruritus)

Myristoyl-Phe-Ala-Arg-Lys-Gly-Ala-Leu-Arg-Gln (Myristoyl-FARKGALRQ) [MPDY-1]
cytokine secretion from LPS and TNFα activated keratinocytes ([1]; FIGS. 19 to 23): decrease
cytokine secretion from IL-17A activated keratinocytes ([1]; FIGS. 24 to 27): decrease
cytokine secretion in keratinocytes ([1]; stimulated by LPS, TNFα, or IL-17, 48 hr): effective in decreasing cytokine secretion
MPDY-1 concentration exhibiting the strongest inhibition of IKK activation ([2]; lowest concentration tested): 0.1 mg/mL
TNFα induced IKK activation in keratinocytes ([2]; pretreated 1 hour, dose dependant): significantly reduced
Activation of macrophages (MAC-2 staining) ([3]; 5 days, 1, 10 and 100 micrograms per mL): significantly inhibited
ICAM expression on basal keratinocytes and endothelial cells in blood vessels of the skin (ICAM-1 staining) ([3]; five days post-wounding): down regulation
macrophage infiltration (Iba-1 staining) ([3]; five days post-wounding): dose dependent effect
Pruritus score after minutes of histamine, 5 minutes ([4]; 1 μg/ml in DPBS, score 0 to 4): 3
Pruritus score after minutes of histamine, 15 minutes ([4]; 1 μg/ml in DPBS, score 0 to 4): 1
Pruritus score after minutes of histamine, 5 minutes ([4]; 10 μg/ml in DPBS, score 0 to 4): 2 and 1
Pruritus score after minutes of histamine, 15 minutes ([4]; 10 μg/ml in DPBS, score 0 to 4): 0
Pruritus score after minutes of histamine, 5 minutes ([4]; 10 ppm in cream, score 0 to 4): 1
Pruritus score after minutes of histamine, 15 minutes ([4]; 10 ppm in cream, score 0 to 4): 0
Pruritus score after minutes of histamine, 5 minutes [4, 5]: 2
Pruritus score after minutes of histamine, 15 minutes [4, 5]: 0
redness, inflammation and pruritus as compared with control ([4]; histamine prick test, over the time course): significantly attenuated
